Where two headings read alike, the source gives them in different places.
Tests used:
UACC-257 = assay: NCI in vitro cytotoxicity screen; format: cell-based; details: Homo sapiens, UACC-257, 48 h, read-out: LC50
Description: (§1) The National Cancer Institute (NCI), Bethesda, Md., USA has available an in vitro cytotoxicity screen which consists of approximately 60 human tumour cell lines against which compounds are tested at a minimum of five concentrations each differing 10-fold. A 48 hour continuous exposure protocol is used, where cell viability or growth is estimated with an SRB protein assay.
(§2) The test compounds were evaluated against approximately 60 human tumour cell lines. The NCI screening procedures were described in detail by Monks and co-workers (Monks, A et al., Journal of the National Cancer Institute, 1991, 83, 757). Briefly, cell suspensions were diluted according to the particular cell type and the expected target cell density (5000-40,000 cells per well based on cell growth characteristics), and added by pipette (100 μL) into 96-well microtitre plates. The cells were allowed a preincubation period of 24 hours at 37° C. for stabilisation. Dilutions at twice the intended test concentration were added at time zero in 100 μL aliquots to the wells. The test compounds were evaluated at five 10-fold dilutions (10^−4, 10^−5, 10^−6, 10^−7 and 10^−[…]). The test compounds were incubated for 48 hours in 5% CO2 atmosphere and 100% humidity. The cells were then assayed using the sulphorhodamine B assay. A plate reader was used to read the optical densities and a microcomputer processed the readings into LC50 values, which is the dosage required to kill half of the cells.

SK-MEL-28 = assay: NCI in vitro cytotoxicity screen; format: cell-based; details: Homo sapiens, SK-MEL-28, 48 h, read-out: LC50
Description: as §1, §2

COLO 205 = assay: NCI in vitro cytotoxicity screen; format: cell-based; details: Homo sapiens, COLO 205, 48 h, read-out: LC50
Description: as §1, §2

MALME-3M = assay: NCI in vitro cytotoxicity screen; format: cell-based; details: Homo sapiens, Malme-3M, 48 h, read-out: LC50
Description: as §1, §2

SK-MEL-2 = assay: NCI in vitro cytotoxicity screen; format: cell-based; details: Homo sapiens, SK-MEL-2, 48 h, read-out: LC50
Description: as §1, §2

MDA-MB-435 = assay: NCI in vitro cytotoxicity screen; format: cell-based; details: Homo sapiens, MDA-MB-435, 48 h, read-out: LC50
Description: as §1, §2

RXF 393 = assay: NCI in vitro cytotoxicity screen; format: cell-based; details: Homo sapiens, RXF 393, 48 h, read-out: LC50
Description: as §1, §2

UACC-62 = assay: NCI in vitro cytotoxicity screen; format: cell-based; details: Homo sapiens, UACC-62, 48 h, read-out: LC50
Description: as §1, §2

SKOV-3 = assay: Ovarian carcinoma cytotoxicity assay; format: cell-based; details: Homo sapiens
Description: (§3) Compounds of the invention (and Anthramycin as a comparison) were evaluated for their cytotoxic activity in ovarian cell lines by Dr Lloyd R. Kelland's group at The Institute of Cancer Research, Sutton, UK. The five cell lines investigated were SKOV-3, A2780/A2780cisR and CH1/CH1cisR (cis R denotes that the cell line is resistant to cisplatin).
(§4) Single viable cells were seeded in growth medium (160 μL) in […] microtitre plates and allowed to attach overnight. […] After 96 hours, the medium was removed and the remaining cells fixed by exposure to 10% trichloroacetic acid on ice for 30 minutes. The wells were then washed 3-4 times with tap water, air dried overnight and treated with 100 μL of sulphorhodamine B (0.4%) dissolved in 1% acetic acid. Staining was allowed to continue for 10-15 minutes, then the wells were washed 3-4 times with 1% acetic acid, air dried and then added to Tris base (100 μL of 10 mM). Plates were then shaken and absorbance readings at 540 nm were determined using a plate reader. By using the Quattro-Pro software package, the IC50 values were calculated from plots of concentration versus percentage absorbance (compared with 8 untreated wells).

CH1 = assay: Ovarian carcinoma cytotoxicity assay; format: cell-based; details: Homo sapiens
Description: as §3, §4

CH1cisR = assay: Ovarian carcinoma cytotoxicity assay; format: cell-based; details: Homo sapiens, CH1cisR
Description: as §3, §4

A2780 = assay: Ovarian carcinoma cytotoxicity assay; format: cell-based, human; details: Homo sapiens
Description: as §3, §4

A2780cisR = assay: Ovarian carcinoma cytotoxicity assay; format: cell-based, human; details: Homo sapiens, A2780cisR
Description: as §3, §4

SF-539 = assay: NCI in vitro cytotoxicity screen; format: cell-based; details: Homo sapiens, SF-539, 48 h, read-out: LC50
Description: as §1, §2

SNB-75 = assay: NCI in vitro cytotoxicity screen; format: cell-based; details: Homo sapiens, SNB-75, 48 h, read-out: LC50
Description: as §1, §2

MDA-N = assay: NCI in vitro cytotoxicity screen; format: cell-based; details: Homo sapiens, 48 h, read-out: LC50
Description: as §1, §2

NCI-H522 = assay: NCI in vitro cytotoxicity screen; format: cell-based; details: Homo sapiens, NCI-H522, 48 h, read-out: LC50
Description: as §1, §2

M14 = assay: NCI in vitro cytotoxicity screen; format: cell-based; details: Homo sapiens, M14, 48 h, read-out: LC50
Description: as §1, §2

[1] = SK-OV-3, 96 hours, sulphorhodamine B, read-out: IC50 Skov3
[2] = CH1, 96 hours, sulphorhodamine B, read-out: IC50 CH1
[3] = cisplatin-resistant, 96 hours, sulphorhodamine B, read-out: IC50 CH1cisR
[4] = A2780, 96 hours, sulphorhodamine B, read-out: IC50 A2780
[5] = cisplatin-resistant, 96 hours, sulphorhodamine B, read-out: IC50 A2780cisR
[6] = SK-OV-3, 96 h, read-out: IC50 Skov3, 96 hours, sulphorhodamine B
[7] = CH1, 96 h, read-out: IC50 CH1, 96 hours, sulphorhodamine B
[8] = 96 h, read-out: IC50 CH1cisR, cisplatin-resistant, 96 hours, sulphorhodamine B
[9] = A2780, 96 h, read-out: IC50 A2780, 96 hours, sulphorhodamine B
[10] = 96 h, read-out: IC50 A2780cisR, cisplatin-resistant, 96 hours, sulphorhodamine B

SMILES	CC50 (SK-MEL-28) [nM]	CC50 (COLO 205) [nM]	CC50 (MALME-3M) [nM]	CC50 (SK-MEL-2) [nM]	CC50 (MDA-MB-435) [nM]	CC50 (RXF 393) [nM]	CC50 (UACC-62) [nM]	IC50 (SKOV-3; [1]) [nM]	IC50 (CH1; [2]) [nM]	IC50 (CH1cisR; [3]) [nM]	IC50 (A2780; [4]) [nM]	IC50 (A2780cisR; [5]) [nM]	IC50 (SKOV-3; [6]) [nM]	IC50 (CH1; [7]) [nM]	IC50 (CH1cisR; [8]) [nM]	IC50 (A2780; [9]) [nM]	IC50 (A2780cisR; [10]) [nM]	also measured
C=C1C[C@H]2C=Nc3cc(OC)c(OC)cc3C(=O)N2C1 [UP2064 (74), (11aS)-7,8-Dimethoxy-2-methylidene-1,2,3,11a-tetrahydro-5H-pyrrolo[2,1-c][1.4]benzodiazepin-5-one]	2600	600	900	1700	2300	800	600	390	66	84	150	360	–	–	–	–	–	CC50 (UACC-257): 7400 nM
COC(=O)CC1=CN2C(=O)c3cc(OC)c(OC)cc3N=C[C@@H]2C1 [UP2065 (42)]	–	4000	4700	3500	800	800	–	450	115	150	360	460	–	–	–	–	–	–
COc1cc2c(cc1OCc1ccccc1)N=C[C@@H]1CC(=O)CN1C2=O [UP2067 (172)]	6600	5800	7400	–	800	800	3000	–	–	–	–	–	540	165	180	115	390	CC50 (SF-539): 6800 nM; CC50 (SNB-75): 5400 nM; CC50 (MDA-N): 600 nM; CC50 (NCI-H522): 5000 nM; CC50 (M14): 800 nM
COc1ccc(C2=CN3C(=O)c4cc(OC)c(OC)cc4N=C[C@@H]3C2)cc1 [UP2092 (179), (11aS)-1,11a-dihydro-7,8-dimethoxy-2-(4-methoxyphenyl)-5H-pyrrolo[2,1-c][1,4]benzodiazepin-5-one]	–	–	–	–	–	–	–	–	–	–	–	–	9.8	1.6	8.2	4	7	–
COc1cc2c(cc1OC)C(=O)N1C=C(c3ccccc3)C[C@H]1C=N2 [UP2095 (181), (11aS)-1,11a-dihydro-7,8-dimethoxy-2-phenyl-5H-pyrrolo[2,1-c][1,4]benzodiazepin-5-one]	–	–	–	–	–	–	–	–	–	–	–	–	< 50	< 50	< 50	< 50	< 50	–
C/C=C1\C[C@H]2C=Nc3cc(OCc4ccccc4)c(OC)cc3C(=O)N2C1 [UP2100 (207)]	–	–	–	–	–	–	–	–	–	–	–	–	81	< 50	< 50	< 50	66	–

Source: patent publication US7049311B1, “Pyrrolbenzodiazepines” (Spirogen Limited, priority 1998, dated 2006)
